Test results published in patent publication US20030095990A1, “Microemulsion facial washes comprising specific oils” (Unilever Home & Personal Care USA, Division of Conopco, Inc., priority 2001, published 2003).

What was measured:
[1] = Cognis spreading area over fixed time, converted using oleyl oleate as control; cited from earlier work
[2] = Oil spreading time on human inner forearm (spreadability factor S^R); type: physicochemical; details: 4 μL oil, 12 mm×8 mm ellipse on inner forearm; for Relative Spreading Time (spreadability factor S^R): normalized to oleyl oleate, data of present work; for spreading time: two panelists in duplicate
Method: As for oil “spreadability factor”, S^R, a semi-quantitative assay was developed by applicants to determine the spreading time for the different oils that have the potential to be used in microemulsions. First, an elliptic shape with 12 mm×8 mm diameters was marked on the inner forearm of a panelist. Because of the textural orientation of the skin, the spreading trace is usually in an elliptic shape. […] According to the test, 4 μL of the tested oil was dosed in the center of the area. The time when the oil arrived at the marked outline was recorded as the spreading time of the oil. The data were obtained on two panelists with duplicate tests for each oil. The average values were taken as the results. The spreading time of oleyl oleate was than used to normalize the measured values. For example, the spreading time for oleyl oleate is 1.3+0.03 minutes for IPM so the relative spreading time for IPM is 0.5/1.3=0.4. Thus, the spreadability factor, S^R, is ratio of spread rate of selected oil (measured in minutes) to spread rate of oleyl oleate (also measured in minutes).
Using this test, examples of oil spreading times are noted below: […]

[3] = Viscosity, ARES Rheometer, strain controlled mode; type: physicochemical; details: 20-23° C.
From the text: The ARES Rheometer manufactured by Rheometric Scientific™ was used for measuring viscosities in strain controlled mode. Fluid behavior of the microemulsions is different from conventional skin cleansers. They are Newtonian liquids, so the viscosity is constant with varying shear rate or time. […] As noted, the viscosities of the two microemulsions are much lower than for the competitors' liquid cleansers. However, low viscosity may ease penetration into crevices. Make-up removal efficacy may be directly related to product viscosity, i.e., an increased viscosity of a product caused a reduction in make-up removal. […] Pond's Clear Solutions® Deep Pore Foaming cleanser has an even lower viscosity than the microemulsions. It is packaged in a bottle with aeration upon dispensing, providing a thick and creamy foam. Microemulsions can be used as a cleansing milk or impregnated onto a non-woven.
To simulate the effect of sebum dissolution in washing process on the viscosity of the microemulsion, 2% model sebum was dissolved in microemulsion #1. From the results, one can expect that the good properties of the microemulsion, i.e., solvency and low viscosity, will be maintained during the washing process.

Row | Molecule | Relative Spreading Time [1] | Relative Spreading Time (spreadability factor S^R) [2] | further results
1 | CCCCCCCC/C=C\CCCCCCCCCCCC(=O)OCCCCCCCC/C=C\CCCCCCCC [Oleyl Eructate] | 1.2 |  | 
2 | CCCCCCCCOCCCCCCCC [Cetiol ® OE: Di-N-Octyl Ether, Di-N-Octyl Ether] |  | 0.2 | 
3 | O [Water] |  |  | Viscosity at Shear Rate 10 s^−1 [3]: 1 mPa-s
4 | CC(C)CCCC(C)CCCC(C)CCCCC(C)CCCC(C)CCCC(C)C (centres unmarked) [Squalane] |  | 1.0 | 
5 | Pentahydrosqualene |  | 2.5 | 
6 | CCCCCCCCCCCCCCCC(=O)OC(C)C [Isopropanol Palmitate] |  | 0.7 | 
7 | CCCCCCCC/C=C\CCCCCCCCOC(=O)CCCCCCC/C=C\CCCCCCCC [Oleyl Oleate, reference compound] | 1 | 1 | spreading time [2]: 1.3 ± 0.03 min
8 | Dioctyl Cyclohexane | 0.5 |  | 
9 | CCCCCCCCCCC(CO)CCCCCCCC (centres unmarked) [Octyl Dodecanol] | 0.7 |  | 
10 | CCCCCCCC/C=C\CCCCCCCCO [Oleyl Alcohol] | 0.6 |  | 
11 | CCCCCCCCCCCCCC(=O)OC(C)C [Isopropanol Myristrate] | 0.4 | 0.4 | spreading time [2]: 0.5 min
12 | CCCCCCCC(=O)OCC(COC(=O)CCCCCCC)OC(=O)CCCCCCC [Glycerol Tricaprylate] |  | 0.9 | 
13 | CC(C)=CCC/C(C)=C/CC/C(C)=C/CC/C=C(\C)CC/C=C(\C)CCC=C(C)C [Squalene] |  | 0.8 | 
